The test has as its target T1, Endothelin converting enzyme (ECE) (Sus scrofa, UniProt A0A8W4FBH0).
T1 construct: partially purified from porcine primary aortic endothelial cells; endogenous in cells; host or cells: porcine primary aortic endothelial cells (partially purified by DE52 anion exchange)
T1 sequence (A0A8W4FBH0 1-751): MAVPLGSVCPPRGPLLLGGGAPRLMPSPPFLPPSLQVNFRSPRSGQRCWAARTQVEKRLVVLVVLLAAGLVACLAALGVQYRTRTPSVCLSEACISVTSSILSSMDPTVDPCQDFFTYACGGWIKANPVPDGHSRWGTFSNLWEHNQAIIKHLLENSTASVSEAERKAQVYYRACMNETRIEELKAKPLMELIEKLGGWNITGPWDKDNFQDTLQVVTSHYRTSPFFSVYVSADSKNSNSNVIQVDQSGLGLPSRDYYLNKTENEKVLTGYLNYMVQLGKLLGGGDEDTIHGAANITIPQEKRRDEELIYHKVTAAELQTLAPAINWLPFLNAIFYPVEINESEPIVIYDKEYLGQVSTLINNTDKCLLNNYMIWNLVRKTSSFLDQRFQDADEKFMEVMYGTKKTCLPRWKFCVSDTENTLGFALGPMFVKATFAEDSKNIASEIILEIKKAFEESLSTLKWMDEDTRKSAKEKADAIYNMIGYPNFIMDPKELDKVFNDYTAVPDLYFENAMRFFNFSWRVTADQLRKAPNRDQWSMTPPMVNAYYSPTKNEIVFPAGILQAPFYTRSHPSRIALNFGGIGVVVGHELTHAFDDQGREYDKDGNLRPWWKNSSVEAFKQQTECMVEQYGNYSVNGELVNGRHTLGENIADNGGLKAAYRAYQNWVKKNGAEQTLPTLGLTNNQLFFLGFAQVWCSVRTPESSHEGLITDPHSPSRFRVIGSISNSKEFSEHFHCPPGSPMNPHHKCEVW
Put plainly: in vitro assay for endothelin converting enzyme inhibition (radioimmunoassay of ET-1 formed from big ET-1). Format: biochemical, porcine. An excerpt: The ECE inhibition can be determined as described in Biochem. Mol. Biol. Int. […] In vitro testing is most appropriate for the free phosphonic acids of the invention.

From US5583123A, “Certain tetrazole derivatives” (priority 1994, dated 1996) come the findings set out here.

By IC50 is commonly meant the concentration needed to halve the response being measured.

Regarding `O=P(O)(O)C(CCc1cccc2ccccc12)N[C@@H](Cc1ccc(-c2ccccc2)cc1)c1nnn[nH]1` (single isomer, unassigned) [1 (a)], the IC50 (ECE partially purified from porcine primary aortic endothelial cells, pH 7.4 buffer) was roughly 0.37 µM. For the same molecule, under “comparison of the two diastereomers of Example 1”, the “relative activity as ECE inhibitor (diastereomer A versus diastereomer B)” value was “more active”.
